Experimental data from patent US7989497B2, “Squaramide derivatives as CXCR2 antagonist” (Novartis AG, priority 2008, dated 2011).

Target: T1, human CXCR2 receptor (Homo sapiens, UniProt P25025)
T1 construct: purchased Biosignal Packard Inc; host or cells: CHO-K1 (Chinese hamster ovary) cell membranes
T1 sequence (P25025 1-360): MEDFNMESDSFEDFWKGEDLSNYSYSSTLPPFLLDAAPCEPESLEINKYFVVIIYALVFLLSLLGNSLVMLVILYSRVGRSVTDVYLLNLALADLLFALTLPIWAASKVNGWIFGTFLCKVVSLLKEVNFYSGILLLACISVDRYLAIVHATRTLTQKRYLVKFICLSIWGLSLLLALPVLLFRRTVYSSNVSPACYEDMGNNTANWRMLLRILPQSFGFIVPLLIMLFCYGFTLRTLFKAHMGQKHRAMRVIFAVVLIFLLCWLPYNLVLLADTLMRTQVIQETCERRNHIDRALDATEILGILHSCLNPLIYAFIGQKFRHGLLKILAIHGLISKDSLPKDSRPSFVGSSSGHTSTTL
Experiment: [35S]-GTPγS binding assay for human CXCR2 receptor using SPA technology
Type: biochemical
Conditions: CHO-K1 membranes expressing human CXCR2, 100 nM IL-8
From the text: [^35S]-GTPγS Binding Assay for Human CXCR2 Receptor Using SPA Technology
[^35S]-GTPγS (with specific activity 1082 Ci/mmol) and wheat germ agglutinin poly vinyl toluene scintillation proximity beads are purchased from Amersham Pharmacia Biotech. The Chinese hamster ovary cell (CHO-K1) membranes expressing human CXCR2 receptors are purchased from Biosignal Packard Inc. All other chemicals are of analytical grade. White non-binding surface 96 well Optiplate™ microplates are obtained from Packard. Recombinant human IL-8 is synthesised, cloned and expressed in Escherichia coli as described previously (Lindley I, et al., Proc. Natl. Acad. Sci., 1988, 85(23):9199).
The assay is performed in duplicate in 96 well Optiplate™ microplate in a final volume of 250 μl per well. Compounds are diluted in DMSO (0.5% final concentration) and incubated in 20 mM HEPES buffer pH 7.4 containing 10 mM MgCl2, 100 mM NaCl, 1 mM EDTA plus 100 nM IL-8, 50 μM GDP and 500 pM [^35S]GTPγS per well. SPA beads (1 mg/well final concentration) were pre-mixed with the membranes (10 μg/well final concentration) in assay buffer: 20 mM HEPES buffer pH 7.4 containing 10 mM MgCl2, 100 mM NaCl, 1 mM EDTA. The bead membrane mixture is added to each well, plates are sealed and incubated at room temperature for 60 minutes. The plate is centrifuged and read on Packard TopCount™ scintillation counter, program [^35S dpm] for 1 min/well. Data are expressed as the % response to 100 nM IL-8 minus basal.

| SMILES | IC50 |
| --- | --- |
| CCC(Nc1c(Nc2ccc(Cl)c(S(=O)(=O)N(C)OC)c2O)c(=O)c1=O)[C@H]1CCCO1 (stereo in doubt) [Example 4, 6-Chloro-3-{3,4-dioxo-2-[(R)-1-(tetrahydro-furan-2-yl)-propylamino]-cyclobut-1-enylamino}-2-hydroxy-N-methoxy-N-methyl-benzenesulfonamide] | 13 nM |
| CC[C@@H](Nc1c(Nc2ccc(Cl)c(S(=O)(=O)N(C)OC)c2O)c(=O)c1=O)c1ccc(C)o1 [Example 2, 6-Chloro-2-hydroxy-N-methoxy-N-methyl-3-{2-[(R)-1-(5-methyl-furan-2-yl)-propylamino]-3,4-dioxo-cyclobut-1-enylamino}-benzenesulfonamide] | 2 nM |
| CC[C@@H](Nc1c(Nc2ccc(Cl)c(S(=O)(=O)N(CC)OC)c2O)c(=O)c1=O)[C@H]1CCCO1 [Example 2.13, 6-Chloro-3-{3,4-dioxo-2-[(R)-(R)-1-(tetrahydro-furan-2-yl)-propylamino]-cyclobut-1-enylamino}-N-ethyl-2-hydroxy-N-methoxy-benzene sulfonamide] | 6 nM |
| CON(C)S(=O)(=O)c1c(Cl)ccc(Nc2c(NC(C3CC3)C3CC3)c(=O)c2=O)c1O [Example 2.17, 6-chloro-3-(2-(dicyclopropylmethylamino)-3,4-dioxocyclobut-1-enylamino)-2-hydroxy-N-methoxy-N-methylbenzenesulfonamide] | 8 nM |
| CCN(OC)S(=O)(=O)c1c(Cl)ccc(Nc2c(NC(C)C)c(=O)c2=O)c1O [Example 2.19, 6-chloro-N-ethyl-2-hydroxy-3-(2-(isopropylamino)-3,4-dioxocyclobut-1-enylamino)-N-methoxybenzenesulfonamide] | 9 nM |
| COCC(C)Nc1c(Nc2ccc(Cl)c(S(=O)(=O)N(C)OC)c2O)c(=O)c1=O (stereo not shown) [Example 2.23, 6-chloro-2-hydroxy-N-methoxy-3-(2-(1-methoxypropan-2-ylamino)-3,4-dioxocyclobut-1-enylamino)-N-methylbenzenesulfonamide] | 21 nM |
| CCC(Nc1c(Nc2ccc(Cl)c(S(=O)(=O)N(C)OC)c2O)c(=O)c1=O)c1cccc(C)n1 (stereo not shown) [Example 2.27, 6-chloro-2-hydroxy-N-methoxy-N-methyl-3-(2-(1-(6-methylpyridin-2-yl)propylamino)-3,4-dioxocyclobut-1-enylamino)benzenesulfonamide] | 234 nM |
| CC[C@@H](Nc1c(Nc2ccc(Cl)c(S(=O)(=O)N3C[C@H](O)CO3)c2O)c(=O)c1=O)[C@H]1CC[C@@H](C)O1 [Example 2.32, 3-(4-chloro-2-hydroxy-3-((S)-4-hydroxyisoxazolidin-2-ylsulfonyl)phenylamino)-4-((R)-1-((2R,5R)-5-methyltetrahydrofuran-2-yl)propylamino)cyclobut-3-ene-1,2-dione] | 11 nM |
| CON(C)S(=O)(=O)c1c(Cl)ccc(Nc2c(NC(C)C)c(=O)c2=O)c1O [Example 2.35, 6-chloro-2-hydroxy-3-(2-(isopropylamino)-3,4-dioxocyclobut-1-enylamino)-N-methoxy-N-methylbenzenesulfonamide] | 14 nM |
| CC[C@@H](Nc1c(Nc2ccc(Cl)c(S(=O)(=O)N(CC)OC)c2O)c(=O)c1=O)c1ccc(C)o1 [Example 2.43, (R)-6-chloro-N-ethyl-2-hydroxy-N-methoxy-3-(2-(1-(5-methylfuran-2-yl)propylamino)-3,4-dioxocyclobut-1-enylamino)benzenesulfonamide] | 17 nM |
| CCOC[C@H](C)Nc1c(Nc2ccc(Cl)c(S(=O)(=O)N(C)OC)c2O)c(=O)c1=O [Example 2.47, (S)-6-chloro-3-(2-(1-ethoxypropan-2-ylamino)-3,4-dioxocyclobut-1-enylamino)-2-hydroxy-N-methoxy-N-methylbenzenesulfonamide] | 19 nM |
| CCC(Nc1c(Nc2ccc(Cl)c(S(=O)(=O)N(C)OC)c2O)c(=O)c1=O)c1cccnc1 (stereo not shown) [Example 2.50, 6-chloro-3-(3,4-dioxo-2-(1-(pyridin-3-yl)propylamino)cyclobut-1-enylamino)-2-hydroxy-N-methoxy-N-methylbenzenesulfonamide] | 93 nM |
| CCCC(CCC)Nc1c(Nc2ccc(Cl)c(S(=O)(=O)N(C)OC)c2O)c(=O)c1=O [Example 2.57, 6-chloro-3-(2-(heptan-4-ylamino)-3,4-dioxocyclobut-1-enylamino)-2-hydroxy-N-methoxy-N-methylbenzenesulfonamide] | 26 nM |
| CCN(OC)S(=O)(=O)c1c(Cl)ccc(Nc2c(N[C@H](C)c3ccccc3)c(=O)c2=O)c1O [Example 2.58, (R)-6-chloro-3-(3,4-dioxo-2-(1-phenylethylamino)cyclobut-1-enylamino)-N-ethyl-2-hydroxy-N-methoxybenzenesulfonamide] | 28 nM |
| CON(C)S(=O)(=O)c1c(Cl)ccc(Nc2c(NC3CCCC3)c(=O)c2=O)c1O [Example 2.60, 6-chloro-3-(2-(cyclopentylamino)-3,4-dioxocyclobut-1-enylamino)-2-hydroxy-N-methoxy-N-methylbenzenesulfonamide] | 30 nM |
| CC[C@@H](Nc1c(Nc2cccc(S(=O)(=O)N(CC)OC)c2O)c(=O)c1=O)[C@@H]1CCCO1 [Example 2.71, 3-(3,4-dioxo-2-((R)-1-((S)-tetrahydrofuran-2-yl)propylamino)cyclobut-1-enylamino)-N-ethyl-2-hydroxy-N-methoxybenzenesulfonamide] | 56 nM |
| CON(C)S(=O)(=O)c1c(Cl)ccc(Nc2c(N[C@H](C)c3cnn(C)c3)c(=O)c2=O)c1O [Example 2.95, (R)-6-chloro-2-hydroxy-N-methoxy-N-methyl-3-(2-(1-(1-methyl-1H-pyrazol-4-yl)ethylamino)-3,4-dioxocyclobut-1-enylamino)benzenesulfonamide] | 283 nM |
| CON(C)S(=O)(=O)c1c(Cl)ccc(Nc2c(N[C@H]3CCSC3)c(=O)c2=O)c1O [Example 3, 6-Chloro-3-{3,4-dioxo-2-[(S)-(tetrahydro-thiophen-3-yl)amino]-cyclobut-1-enylamino}-2-hydroxy-N-methoxy-N-methyl-benzenesulfonamide] | 26 nM |
| CON(C)S(=O)(=O)c1c(Cl)ccc(Nc2c(N[C@H](C)c3ccccc3)c(=O)c2=O)c1O [Example 5, 6-Chloro-3-[3,4-dioxo-2-((R)-1-phenyl-ethylamino)-cyclobut-1-enylamino]-2-hydroxy-N-methoxy-N-methyl-benzenesulfonamide] | 33 nM |
| CC[C@@H](Nc1c(Nc2ccc(Cl)c(S(=O)(=O)N(C)OC)c2O)c(=O)c1=O)[C@H]1CC[C@@H](C)O1 [Example 6, 6-Chloro-2-hydroxy-N-methoxy-N-methyl-3-{2-[(R)-1-((2R,5R)-5-methyl-tetrahydro-furan-2-yl)-propylamino]-3,4-dioxo-cyclobut-1-enylamino}-benzene sulfonamide] | 28 nM |
| CC[C@@H](Nc1c(Nc2ccc(Cl)c(S(=O)(=O)N(C)OC)c2O)c(=O)c1=O)c1ccccn1 [Example 7, 6-Chloro-3-[3,4-dioxo-2-((R)-1-pyridin-2-yl-propylamino)-cyclobut-1-enylamino]-2-hydroxy-N-methoxy-N-methyl-benzenesulfonamide] | 4 nM |
| CCC(CC)Nc1c(Nc2ccc(Cl)c(S(=O)(=O)N(C)OC)c2O)c(=O)c1=O [Example 8, 6-Chloro-3-[2-(1-ethyl-propylamino)-3,4-dioxo-cyclobut-1-enylamino]-2-hydroxy-N-methoxy-N-methyl-benzenesulfonamide] | 5 nM |
